Consider 1 compound from patent US10251902B2, “Pharmaceutical composition for treating or preventing neuropsychiatric disease, containing flavone-6-C-glucose derivatives as active ingredients” (priority 2013, dated 2019).

The subject of this assay is model of memory impairment induced by scopolamine. Nature of the assay: Passive avoidance test in scopolamine-induced memory impairment model. As to conditions: for Main Experiment / Passive Avoidance Learning: Table 2, scopolamine 1 mg/Kg i.p.; for Main Experiment: latency 24 h after learning, up to 300 seconds; for Passive Avoidance Learning: latency in learning trial; for latency time extended compared to that of the control 2: main experiment, control 2 = scopolamine. The assay is classed as in vivo, ICR mice. Here is the method:
An experiment was conducted to confirm effects of swertisin or isoorientin, and extracts of Swertia pseudochinensis or Swertia japonica containing the same prepared in Examples 1 to 3 in treating dementia by using a model of memory impairment induced by scopolamine. Detailed method follows.
Six-week old ICR mice in about 26 g to 28 g (Orientbio Inc, Republic of Korea) were received water and feed without constraint and adapted for 5 days under an environment having about 23±1° C. of temperature, about 60±10% of humidity and 12-hour light/dark cycle (animal laboratory at College of Pharmacy, Kyung-Hee University), and then used for the experiment.
An apparatus for measuring passive avoidance reaction was prepared. The apparatus has 2 separated chambers (the first and second chambers) and there is a guillotine-shaped passage that connects the first chamber and the second chamber. The first chamber was maintained brightly by using a light, and the second chamber was maintained darkly. A grid was installed on the floor of the second chamber. The grid generates 0.5 mA of electric shock for 3 seconds when the laboratory animal moved into the dark chamber.
About 30 minutes later, 1 mg/Kg of scopolamine, which was dissolved in distilled water, was intraperitoneally administered to the drug administration groups 1 to 4 and controls 1 and 2 (Ebert, U. et al., Eur. J. Clin. Invest., 28, pp 944-949, 1998), and 0.9% of saline solution was intraperitoneally administered to the control 3. After 30 minutes, passive avoidance learning was conducted on the drug administration groups 1-4 and controls 1-3. In detail, the mice were located in the first chamber (i.e. bright space) and the passage was open after about 20 seconds of observation time, and then latency time of the mice moving to the second chamber (i.e. dark space) was measured.
Twenty-four hours after the passive avoidance learning, a main experiment was conducted on the drug administration groups 1-4 and controls 1-3. Latency time of the mice of each group moving their 4 legs into the dark space after 10 seconds of observation time from opening of the guillotine-shaped passage was measured up to 300 seconds. It means that the passive avoidance learning and memory are better if the latency time is longer.
The passive avoidance test was conducted on the drug administration groups 1-4 and controls 1-3 in the same manner as the method explained above except that swertisin, which is one of the flavone-6-C-β-D-glucose derivatives prepared in Example 3, was dissolved in 10% Tween 80 and administered to the drug administration groups 1-4 in amounts of 1.25 mg/kg, 2.5 mg/kg, 5 mg/kg and 10 mg/kg respectively.
The passive avoidance test was conducted on the drug administration groups 1-4 and controls 1-3 in the same manner as Experimental Example 1-1 except that isoorientin, which is one of the flavone-6-C-β-D-glucose derivatives prepared in Example 3, was dissolved in 10% Tween 80 and administered to the drug administration groups 1-4 in amounts of 1.25 mg/kg, 2.5 mg/kg, 5 mg/kg and 10 mg/kg respectively.
The passive avoidance test was conducted on the drug administration groups 1-3 and controls 1-3 in the same manner as Experimental Example 1-1 except that a 70% ethanol extract of Swertia japonica prepared in Example 1, was dissolved in 10% Tween and administered to the drug administration groups 1-3 in amounts of 100 mg/kg, 200 mg/kg and 400 mg/kg respectively.
The passive avoidance test was conducted on the drug administration groups 1-3 and controls 1-3 in the same manner as Experimental Example 1-1 except that a 70% ethanol extract of Swertia pseudochinensis prepared in Example 2, was dissolved in 10% Tween 80 and administered to the drug administration groups 1-3 in amounts of 100 mg/kg, 200 mg/kg and 400 mg/kg respectively.

On to `COc1cc2oc(-c3ccc(O)cc3)cc(=O)c2c(O)c1[C@@H]1O[C@H](CO)[C@@H](O)[C@H](O)[C@H]1O` [swertisin], for which the “Main Experiment” value runs as follows: (swertisin 1.25 mg/kg) 67.13 ± 26.08 s; (swertisin 2.5 mg/kg) 82.11 ± 35.20 s; (swertisin 5 mg/kg) 117.3 ± 44.16 s; (swertisin 10 mg/kg) 117.7 ± 52.28 s. Besides, the “Passive Avoidance Learning” value was 30.20 ± 14.53 s (swertisin 1.25 mg/kg), 19.10 ± 10.37 s (swertisin 2.5 mg/kg), 20.40 ± 10.11 s (swertisin 5 mg/kg) and 29.70 ± 18.76 s (swertisin 10 mg/kg). Also, the “latency time extended compared to that of the control 2” value (from here on “latency time extended compared to that”) (swertisin 1.25 mg/Kg) is “about 2 fold”, the “latency time extended compared to that” value (swertisin 2.5 mg/Kg) is “about 2.5 fold”, the “latency time extended compared to that” value (swertisin 5 mg/Kg) is reported as “about 3 fold” and the “latency time extended compared to that” value (swertisin 10 mg/Kg) was “about 3 fold”.
